Measured values from article PMC10202811 (Nature Medicine, 2023).
“And” between values parts separate entries of the source, which are not always exact repeats. Identical values can stand only once. “Also recorded” adds a separate entry of the source.

Tested on: ALK-driven refractory or relapsed neuroblastoma
Assay: Anti-tumor response: best overall response by NANT response criteria version 2.0
Format: in vivo, human
Source text: Patients underwent disease staging at baseline, after courses 2 and 4 and then every four courses thereafter. The primary endpoint for response analysis is the BOR, defined as the best response observed before progression or start of another therapy. […] Response was graded according to the NANT response criteria version 2.0 (ref. [26]), modified from the International Neuroblastoma Response Criteria (INRC)[48]. NANT response criteria use three components for assessment of overall response: soft tissue response assessed by anatomical imaging and avidity on MIBG or FDG-PET; bone response assessed by uptake in bone by MIBG or bone involvement on FDG-PET; and bone marrow response assessed by morphology on bilateral aspirates and biopsies. Each response component (soft tissue, bone and bone marrow) are graded as CR, PR, SD and PD. Overall response grading is defined as: CR, if a response of CR in all components that are involved at baseline; PR, if a response of PR or better in all involved components; MR, if a response of PR or better but with at least one involved component as SD and no PD in all involved components; SD, if a response of SD in all involved components; and PD, if a response of PD in at least one involved component. The overall response definitions are identical to overall responses (CR, PR, SD and PD) as defined by the INRC. Response assessment is initially performed by sites and reviewed against source documents by NANT operations. Additional blinded central review of all radiological or pathological data was conducted for patients with overall PR or better and, in addition, radiologic pathological data of all involved sites for patients with MR to assign the final BOR on this study. Response by MIBG was determined using the Curie criteria. RR was determined as the proportion of patients with BOR of CR and PR in each cohort. Based on an international consensus by the National Cancer Institute Clinical Trials Planning Committee to refine tumor site eligibility criteria and evaluation of disease response for early-phase clinical trials in children with high-risk recurrent, refractory and progressive neuroblastoma, we also performed an ad hoc analysis to determine a modified RR that includes the proportion of patients with BOR of CR, PR and MR.

[1] = Cohort A1, Dose Level 1, individual patient
[2] = Cohort A1, Dose Level 3, individual patient
[3] = Cohort A1, Dose Level 4, individual patient
[4] = Cohort A2, Dose Level 3A, individual patient
[5] = Cohort A2, Dose Level 4A, individual patient
[6] = Cohort B2 (with topotecan/cyclophosphamide), DL4
[7] = Cohort B2 (with topotecan/cyclophosphamide), DL5
[8] = Cohort B2, Dose Level 4B, individual patient
[9] = Cohort B2, Dose Level 5B, individual patient

## C[C@H]1Oc2cc(cnc2N)-c2c(nn(C)c2C#N)CN(C)C(=O)c2ccc(F)cc21 [Lorlatinib, (10R)-7-amino-12-fluoro-2,10,16-trimethyl-15-oxo-10,15,16,17-tetrahydro-2H-8,4-(metheno)pyrazolo[4,3-h][2,5,11]-benzoxadiazacyclotetradecine-3-carbonitrile]
<18 years, MYCN-amplified/ALK-mutated neuroblastoma (6/7), cohort A1
  patients with PD before or by the end of course 2: 86%
Cohort A1 (N= 23), Total
  CR, patients: 1
  MR, patients: 4
  PD, patients: 12
  PR, patients: 2
Cohort A1, DL1
  CR+PR Rate: 1/3
  CR+PR+MR Rate: 2/3
  CR, patients: 0
  MR, patients: 1
  PD, patients: 1
  PR, patients: 1
Cohort A1, DL2
  CR+PR Rate: 0/2
  CR+PR+MR Rate: 0/2
  CR, patients: 0
  MR, patients: 0
  PD, patients: 2
  PR, patients: 0
Cohort A1, DL3
  CR+PR Rate: 0/3
  CR+PR+MR Rate: 0/3
  CR, patients: 0
  MR, patients: 0
  PD, patients: 2
  PR, patients: 0
Cohort A1, DL4
  CR+PR Rate: 0/9
  CR+PR+MR Rate: 2/9
  CR, patients: 0
  MR, patients: 2
  PD, patients: 5
  PR, patients: 0
Cohort A1, DL5
  CR+PR Rate: 2/6
  CR+PR+MR Rate: 3/6
  CR, patients: 1
  MR, patients: 1
  PD, patients: 2
  PR, patients: 1
[1]
  Course Best overall response is achieved: 14 and 2
  Patient status at end of course: Off therapy
Cohort A1, Dose Level 2, individual patient
  Course Best overall response is achieved: 2
[2]
  Course Best overall response is achieved: 2
  Patient status at end of course: Off therapy
[3]
  Course Best overall response is achieved: 2
  Patient status at end of course: Off therapy
Cohort A1, Dose Level 5, individual patient
  Course Best overall response is achieved: 4 and 6 and 2
Cohort A2 (N=15), Total
  CR, patients: 4
  MR, patients: 3
  PD, patients: 1
  PR, patients: 3
Cohort A2, 100 mg
  CR+PR Rate: 2/5
  CR+PR+MR Rate: 3/5
  CR, patients: 0
  MR, patients: 1
  PD, patients: 1
  PR, patients: 2
Cohort A2, 150 mg
  CR+PR Rate: 5/10
  CR+PR+MR Rate: 7/10
  CR, patients: 4
  MR, patients: 2
  PD, patients: 0
  PR, patients: 1
[4]
  Course Best overall response is achieved: 6 and 2
  Patient status at end of course: Off therapy
[5]
  Course Best overall response is achieved: 4 and 10 and 6 and 2 and 1
  Patient status at end of course: Ongoing therapy; also recorded: Off therapy
Cohort B2 (N=8), Total
  CR, patients: 1
  MR, patients: 3
  PD, patients: 3
  PR, patients: 1
[6]
  CR+PR Rate: 1/2
  CR+PR+MR Rate: 1/2
  CR, patients: 1
  MR, patients: 0
  PD, patients: 1
  PR, patients: 0
[7]
  CR+PR Rate: 1/6
  CR+PR+MR Rate: 4/6
  CR, patients: 0
  MR, patients: 3
  PD, patients: 2
  PR, patients: 1
[8]
  Course Best overall response is achieved: 2
  Patient status at end of course: Off therapy
[9]
  Course Best overall response is achieved: 2
  Patient status at end of course: Ongoing therapy; also recorded: Off therapy
Cohort A1 (3/23)
  RR (BOR of CR or PR): 13%
Cohort A1, 11 of 23 patients with SD or better
  median time to BOR: two
Cohort A1, four of nine
  patients pre-treated with ALK TKI achieving MR or SD: 44%
Cohort A1, single agent, <18 years
  modified RR (BOR of CR/PR/MR): 30%
Cohort A2 (7/15)
  RR (BOR of CR/PR): 47%
Cohort A2, 14 of 15 patients with SD or better
  median time to BOR: four
Cohort A2, single agent, ≥18 years
  modified RR (BOR of CR/PR/MR): 67%
Cohort A2, three of five
  responses in patients with prior ALK TKI: 60%
Cohort B2
  median time to BOR of SD or better: two
Cohort B2 (2/8), with topotecan/cyclophosphamide
  RR (BOR of CR/PR): 25%
Cohort B2, lorlatinib plus topotecan/cyclophosphamide
  patients with MYCN amplification achieving a PR: two of three
Cohort B2, with topotecan/cyclophosphamide, <18 years
  modified RR (BOR of CR/PR/MR): 63% and 62%
Individual patients with prior ALK inhibitor, Cohort A1, Dose Level 1
  Course when BOR obtained: 2
Patients with prior ALK inhibitor, Cohort A1, Dose Level 1
  Course when BOR obtained: 2
Patients with prior ALK inhibitor, Cohort A1, Dose Level 2
  Course when BOR obtained: 2
Patients with prior ALK inhibitor, Cohort A1, Dose Level 3
  Course when BOR obtained: 2
Patients with prior ALK inhibitor, Cohort A1, Dose Level 4
  Course when BOR obtained: 2
Patients with prior ALK inhibitor, Cohort A1, Dose Level 5
  Course when BOR obtained: 2
Patients with prior ALK inhibitor, Cohort A2, Dose Level 3A
  Course when BOR obtained: 2
Patients with prior ALK inhibitor, Cohort B2, Dose Level 4B
  Course when BOR obtained: 2
Patients with prior ALK inhibitor, Cohort B2, Dose Level 5B
  Course when BOR obtained: 2 and 1
Prior ALK inhibitor, Cohort A1, Dose Level 2
  Course when BOR obtained: 2
Prior ALK inhibitor, Cohort A1, Dose Level 3
  Course when BOR obtained: 2
Prior ALK inhibitor, Cohort A1, Dose Level 4
  Course when BOR obtained: 2
Prior ALK inhibitor, Cohort A1, Dose Level 5
  Course when BOR obtained: 2
Prior ALK inhibitor, Cohort B2, Dose Level 4
  Course when BOR obtained: 2
Prior ALK inhibitor, Cohort B2, Dose Level 5
  Course when BOR obtained: 2 and 1
